According to US20070004623A1, “Use of hydroxylated amino acids for treating diabetes” (Innodia Inc., priority 2003, published 2007):

Key:
Format in all cases: cell-based
INS-1 cells [1] = experiment: glucose-dependent insulin secretion in INS-1 cells, ID 1101 with Glibenclamide; conditions: 4.5 mM glucose, 1 hour
Description: The optical isomer 2S,3R,4S of 4-hydroxyisoleucine (ID 1101) was tested in a blinded manner, alone and in combination with Glibenclamide, to determine the insulinotropic effect on INS-1 cells. Briefly, the cells were plated at a density of 2×10^5 in 12 well plates and incubated for 2 days in RPMI with 10% fetal calf serum and 11 mM glucose. The medium was removed on the third day post-plating and replaced with RPMI containing 3 mM glucose with 10% fetal calf serum. The cells were incubated for an additional 24 hours. On the fourth day post-plating, the medium was removed and replaced with Krebs-Ringers bicarbonate buffer containing 2 mM glucose. The cells were incubated for 30 minutes. The buffer was removed and replaced with Krebs-Ringers bicarbonate buffer with 4.5 mM glucose, containing ID 1101 at 0.1 mM, Glibenclamide alone at 10-10 mM or 10^−11 mM, or a combination of the 2 compounds. The cells were incubated for 1 hour. Basal insulin secretion was determined by incubating the cells in the presence of buffer with 2 mM glucose. The presence of glucose at 4.5 mM stimulated insulin secretion and served as the positive control.

[2] = system: differentiated 3T3-L1 adipocyte cells; experiment: uptake of 3H-deoxy-glucose by differentiated 3T3-L1 adipocyte cells; conditions: last 30 minutes of 5 hour starvation, control cells 2 pmol/mg/minute
Description: Briefly, 3T3-L1 adipocyte cells (ATCC; Cl-173) were cultured in 12 well tissue culture plates for 3 days in order to reach confluence ([…] al., “Analysis of insulin-stimulated glucose uptake in differentiated 3T3-L1 adipocytes,” Diabetes Mellitus: Methods and Protocols, ([…]., 2003, pages 97-103). The culture medium was removed and replaced with differentiation-medium (Green et al., Cell 3:127-133, 1974; Madsen et al., Biochem. J. 375:539-549, 2003), and then the cells were incubated for an additional 9 days. The state of differentiation was confirmed by visual examination. Cell starvation was conducted for 5 hours by replacing the differentiation medium with medium lacking fetal calf serurn. During the starvation period, the cells were exposed ID 1101 (0.5 or 1.0 mM), for 0.5, 1, 2, 4, or 5 hours. The cells were exposed to insulin (0.0167 U/ml; Sigma; Cat. No. 15534) for the last 0.5 hour of the starvation period, either alone or in combination ID 1101. The cells were washed, and then fresh medium containing 16 μM ^3H-Deoxy-D-glucose (0.5 μCi/ml) and 10 μM 2-Deoxy-D-glucose was added and the cells were incubated for 10 minutes. Glucose uptake was stopped by washing the cells with ice cold PBS. The cells were lysed and specific activity in the lysate was determined relative to background uptake of ^3H-deoxy-glucose. […]

INS-1 cells [3] = experiment: glucose-dependent insulin secretion in INS-1 cells, ID 1101 with Exendin-4; conditions: 4.5 mM glucose, 1 hour
Description: The optical isomer 2S,3R,4S of 4-hydroxyisoleucine (ID 1101) was tested alone and in combination with Exendin-4, to determine the insulinotropic effect on INS-1 cells. Briefly, the cells were plated at a density of 2×10^5 in 12 well plates and incubated for 2 days in RPMI with 10% fetal calf serum and 11 mM glucose. The medium was removed on the third day post-plating and replaced with RPMI containing 3 mM glucose with 10% fetal calf serum. The cells were incubated for an additional 24 hours. On the fourth day post-plating, the medium was removed and replaced with Krebs-Ringers bicarbonate buffer containing 2 mM glucose. The cells were incubated for 30 ninutes. The buffer was removed and replaced with Krebs-Ringers bicarbonate buffer with 4.5 mM glucose, containing ID 1101 at 0.01 or 0.05 mM, Exendin-4 alone at 10^−9 mM or 10^−10 mM, or a combination of the 2 compounds. The cells were incubated for 1 hour. Basal insulin secretion was determined by incubating the cells in the presence of buffer with 2 mM glucose. The effect of glucose at 4.5 mM served as the control.

Q: With `COc1ccc(Cl)cc1C(=O)NCCc1ccc(S(=O)(=O)NC(=O)NC2CCCCC2)cc1` [Glibenclamide] as the molecule, how does the insulin secretion (INS-1 cells [1]; Glibenclamide 10^−10 mM) read?
A: showed a stimulatory effect

Q: And the insulin secretion (INS-1 cells [1]; Glibenclamide 10^−11 mM)?
A: not

Q: For insulin, which “stimulation of glucose uptake above the background level” value ([2]; insulin 0.0167 U/ml as sole treatment) is on record?
A: approximately 5 pmol/mg/minute

Q: With `C[C@@H]([C@H](C)O)[C@H](N)C(=O)O` [ID 1101, 4-hydroxyisoleucine] as the molecule, how does the “stimulation of glucose uptake above the background level” value ([2]; ID 1101 0.5 or 1.0 mM as sole treatment) read?
A: approximately 5 pmol/mg/minute

Q: And the insulin secretion (INS-1 cells [3]; ID 1101 0.01 or 0.05 mM)?
A: stimulated insulin secretion above background levels

Q: And the insulin secretion (INS-1 cells [1]; ID 1101 0.1 mM)?
A: stimulated insulin secretion above background levels

Q: Which insulin secretion (INS-1 cells [3]; Exendin-4 10^−9 and 10^−10 mM) does the source give for Exendin-4 [reference compound] here?
A: did not show a stimulatory effect
